Assay results taken from PubChem BioAssay (NCI).
Where “and” joins values, the source holds several entries; their conditions need not be identical. Equal values may be shown once.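 Assay format: 96-well plates, 48-hour exposure. The concentration for 50% growth inhibition is given as GI50. TGI: concentration producing complete growth inhibition.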

Tests used:
Assay in all cases: growth of human tumour cells (NCI), 48 h
HOP-62 NSCLC = test system: HOP-62 NSCLC
K-562 leukemia = test system: K-562 leukemia
KM20L2 colon = test system: KM20L2 colon
NCI-H23 lung = test system: NCI-H23 lung
SF-295 CNS = test system: SF-295 CNS
SN12C renal = test system: SN12C renal
SNB-19 CNS = test system: SNB-19 CNS
SNB-78 CNS = test system: SNB-78 CNS
SW-620 colon = test system: SW-620 colon

CCOC(=O)C1=C(C)N(NC(=O)Nc2ccccc2)C2(N)N(NC(=O)Nc3ccccc3)C(C)=C(C(=O)OCC)C12C(=O)OCC (stereo not drawn)
TGI (HOP-62 NSCLC): 84.7 µM | TGI (K-562 leukemia): > 100 µM | TGI (KM20L2 colon): > 100 µM | TGI (NCI-H23 lung): > 100 µM | TGI (SF-295 CNS): > 100 µM | TGI (SN12C renal): 3.01 µM | TGI (SNB-19 CNS): > 100 µM | TGI (SNB-78 CNS): > 100 µM | TGI (SW-620 colon): > 100 µM

CN1C(=O)C(=O)N2c3ccc(Cl)cc3C3(c4ccccc4)N=CC12O3 (stereo not drawn)
TGI (HOP-62 NSCLC): 30.7 µM | TGI (K-562 leukemia): 19.9 µM | TGI (KM20L2 colon): 24.1 µM | TGI (NCI-H23 lung): 15.5 µM | TGI (SF-295 CNS): 23.2 µM | TGI (SN12C renal): 13.7 µM | TGI (SNB-19 CNS): 26.8 µM | TGI (SNB-78 CNS): 33.8 µM | TGI (SW-620 colon): 14.5 µM

O=C(/C=C/c1c(O)ccc2ccccc12)c1ccc([N+](=O)[O-])cc1
TGI (HOP-62 NSCLC): > 100 µM | TGI (K-562 leukemia): > 100 µM | TGI (KM20L2 colon): > 100 µM | TGI (NCI-H23 lung): 60.3 µM | TGI (SF-295 CNS): > 100 µM | TGI (SN12C renal): 39.7 µM | TGI (SNB-19 CNS): > 100 µM | TGI (SNB-78 CNS): 66.4 µM | TGI (SW-620 colon): > 57.6 µM

O=C(Nc1nc(=S)[nH][nH]1)C(=O)C(C(=O)c1ccc2ccccc2c1)C1OC(=O)c2ccccc21 (stereo not drawn)
TGI (HOP-62 NSCLC): 45.4 µM | TGI (K-562 leukemia): 82.9 µM | TGI (KM20L2 colon): > 100 µM | TGI (NCI-H23 lung): 79.9 µM | TGI (SN12C renal): 47.2 µM | TGI (SNB-19 CNS): 33.3 µM | TGI (SNB-78 CNS): > 100 µM | TGI (SW-620 colon): > 100 µM

O=C(NC1C=CCC2C(=O)N(c3ccccc3)C(=O)C12)OCc1ccccc1 (stereo not drawn)
TGI (HOP-62 NSCLC): > 100 µM | TGI (K-562 leukemia): > 100 µM | TGI (KM20L2 colon): > 100 µM | TGI (NCI-H23 lung): > 100 µM | TGI (SF-295 CNS): > 100 µM | TGI (SN12C renal): > 100 µM | TGI (SNB-19 CNS): > 100 µM | TGI (SNB-78 CNS): > 100 µM | TGI (SW-620 colon): > 100 µM

CCCCCCCCCCCCNC(=S)OC
TGI (HOP-62 NSCLC): 31.9 µM | TGI (K-562 leukemia): 39.6 µM | TGI (KM20L2 colon): 30 µM | TGI (NCI-H23 lung): 34 µM | TGI (SF-295 CNS): 36 µM | TGI (SN12C renal): 27.3 µM | TGI (SNB-19 CNS): 69.8 µM | TGI (SNB-78 CNS): 45.9 µM | TGI (SW-620 colon): 30.2 µM

Cc1ccc(S(=O)(=O)N2CCC2c2ccccc2)cc1 (stereo not drawn)
TGI (HOP-62 NSCLC): > 100 µM | TGI (K-562 leukemia): > 100 µM | TGI (KM20L2 colon): > 100 µM | TGI (NCI-H23 lung): > 100 µM | TGI (SF-295 CNS): > 100 µM | TGI (SN12C renal): > 100 µM | TGI (SNB-19 CNS): > 100 µM | TGI (SNB-78 CNS): > 100 µM | TGI (SW-620 colon): > 100 µM

COc1ccc2c(c1)[n+]([O-])c(C(N)=O)c(N)[n+]2[O-]
TGI (HOP-62 NSCLC): > 100 µM | TGI (K-562 leukemia): > 100 µM | TGI (KM20L2 colon): > 100 µM | TGI (NCI-H23 lung): 97.7 µM | TGI (SF-295 CNS): > 100 µM | TGI (SN12C renal): > 100 µM | TGI (SNB-19 CNS): > 100 µM | TGI (SNB-78 CNS): > 100 µM | TGI (SW-620 colon): > 100 µM

C[C@@]1(O)CC[C@]2(C)C3CCCC3[C@H]12 (stereo partly drawn)
TGI (HOP-62 NSCLC): > 100 µM | TGI (K-562 leukemia): > 100 µM | TGI (KM20L2 colon): > 100 µM | TGI (NCI-H23 lung): > 100 µM | TGI (SF-295 CNS): > 100 µM | TGI (SN12C renal): > 100 µM | TGI (SNB-19 CNS): > 100 µM | TGI (SNB-78 CNS): > 100 µM | TGI (SW-620 colon): > 100 µM

N#CC(C(=O)CCC(=O)Nc1ccc(Cl)c(Cl)c1)c1ccccc1 (stereo not drawn)
TGI (HOP-62 NSCLC): > 100 µM | TGI (K-562 leukemia): > 100 µM | TGI (KM20L2 colon): > 100 µM | TGI (NCI-H23 lung): > 100 µM | TGI (SF-295 CNS): > 100 µM | TGI (SN12C renal): > 100 µM | TGI (SNB-19 CNS): > 100 µM | TGI (SNB-78 CNS): > 100 µM | TGI (SW-620 colon): > 100 µM

O=S1C(=c2ccc(=C3Sc4ccccc4S3)cc2)Sc2ccccc21 (stereo not drawn)
TGI (HOP-62 NSCLC): 31.6 µM | TGI (K-562 leukemia): > 100 µM | TGI (KM20L2 colon): 31.9 µM | TGI (NCI-H23 lung): 30.2 µM | TGI (SF-295 CNS): 31.2 µM | TGI (SN12C renal): 29.3 µM | TGI (SNB-19 CNS): 30.7 µM | TGI (SNB-78 CNS): > 100 µM | TGI (SW-620 colon): > 100 µM

Cc1[cH-]c(=O)n(-c2ccccc2)n1.[Au+].[Au].c1ccc([PH+](c2ccccc2)c2ccccc2)cc1.c1ccc([PH+](c2ccccc2)c2ccccc2)cc1
GI50 (HOP-62 NSCLC): 23.7 µM | TGI (HOP-62 NSCLC): 54 µM | GI50 (K-562 leukemia): 34.7 µM | TGI (K-562 leukemia): > 100 µM | GI50 (KM20L2 colon): 66.7 µM | TGI (KM20L2 colon): > 100 µM | GI50 (NCI-H23 lung): 9.75 µM | TGI (NCI-H23 lung): 46.1 µM | GI50 (SF-295 CNS): 15.1 µM | TGI (SF-295 CNS): 35.2 µM | GI50 (SN12C renal): 37.5 µM | TGI (SN12C renal): > 100 µM | GI50 (SNB-19 CNS): 12.5 µM | TGI (SNB-19 CNS): 32.7 µM | GI50 (SNB-78 CNS): 3.43 µM and 14.6 µM | TGI (SNB-78 CNS): > 100 µM | GI50 (SW-620 colon): 26.9 µM | TGI (SW-620 colon): 81.4 µM

O=C1C(C(Nc2ccccc2)c2ccccc2)=C([O-])c2ccccc21.O=C1C(C(Nc2ccccc2)c2ccccc2)=C([O-])c2ccccc21.[Cu+2] (stereo not drawn)
GI50 (HOP-62 NSCLC): > 100 µM | TGI (HOP-62 NSCLC): > 100 µM | GI50 (K-562 leukemia): 28.6 µM | TGI (K-562 leukemia): > 100 µM | GI50 (KM20L2 colon): 52.5 µM | TGI (KM20L2 colon): > 100 µM | GI50 (NCI-H23 lung): 24.9 µM | TGI (NCI-H23 lung): > 100 µM | GI50 (SF-295 CNS): 48.2 µM | TGI (SF-295 CNS): > 100 µM | GI50 (SN12C renal): 41.5 µM | TGI (SN12C renal): > 100 µM | GI50 (SNB-19 CNS): > 100 µM | TGI (SNB-19 CNS): > 100 µM | GI50 (SNB-78 CNS): 84.6 µM | TGI (SNB-78 CNS): > 100 µM | GI50 (SW-620 colon): 42.6 µM | TGI (SW-620 colon): > 100 µM

CCCOc1nc(N)c2cnn(C3CCCCO3)c2n1 (stereo not drawn)
TGI (HOP-62 NSCLC): > 100 µM | TGI (K-562 leukemia): > 100 µM | TGI (KM20L2 colon): > 100 µM | TGI (NCI-H23 lung): > 100 µM | TGI (SF-295 CNS): > 100 µM | TGI (SN12C renal): > 100 µM | TGI (SNB-19 CNS): > 100 µM | TGI (SNB-78 CNS): > 100 µM | TGI (SW-620 colon): > 100 µM

CN(C)C=Nc1nc(=O)n(C2CCC(CO)O2)cc1F (stereo not drawn)
TGI (HOP-62 NSCLC): > 100 µM | TGI (K-562 leukemia): > 100 µM | TGI (KM20L2 colon): > 100 µM | TGI (NCI-H23 lung): > 100 µM | TGI (SF-295 CNS): > 100 µM | TGI (SN12C renal): > 100 µM | TGI (SNB-19 CNS): > 100 µM | TGI (SNB-78 CNS): > 100 µM | TGI (SW-620 colon): > 100 µM

CN(C)CC1CCCC/C1=N/O (stereo not drawn)
TGI (HOP-62 NSCLC): > 100 µM | TGI (K-562 leukemia): > 100 µM | TGI (KM20L2 colon): > 100 µM | TGI (NCI-H23 lung): > 100 µM | TGI (SF-295 CNS): > 100 µM | TGI (SN12C renal): > 100 µM | TGI (SNB-78 CNS): > 100 µM | TGI (SW-620 colon): > 100 µM

CN(C)CC1CCC/C1=N/OC(=O)c1ccccc1 (stereo not drawn)
TGI (HOP-62 NSCLC): > 100 µM | TGI (K-562 leukemia): > 100 µM | TGI (KM20L2 colon): > 100 µM | TGI (NCI-H23 lung): > 100 µM | TGI (SF-295 CNS): > 100 µM | TGI (SN12C renal): > 100 µM | TGI (SNB-78 CNS): > 100 µM | TGI (SW-620 colon): > 100 µM
